Laboratory results as given in ChEMBL document CHEMBL5154887, “Novel CRBN-Recruiting Proteolysis-Targeting Chimeras as Degraders of Stimulator of Interferon Genes with In Vivo Anti-Inflammatory Efficacy” (J Med Chem, 2022).
Active and inactive are the calls of the source. No cut-off for these calls is given here.

Legend:
[1] = MRT (0 to infinity) in Sprague-Dawley rat at 20 mg/kg, po measured upto 48 hrs by UPLC-triple quadrupole MS analysis; assay type: ADME, organism-based; conditions: in vivo
[2] = Apparent volume of distribution in Sprague-Dawley rat at 2 mg/kg, iv measured upto 48 hrs by UPLC-triple quadrupole MS analysis; assay type: ADME, organism-based; conditions: in vivo, read-out: Vz
[3] = Toxicity in cisplatin-induced acute kidney injury in C57BL/6J mouse model assessed as tubular epithelial edema in kidney at 30 to 60 mg/kg, ip pretreated for 1 hr followed by cisplatin administration and measured after 72 hrs by H and E staining based analysis; assay type: organism-based; conditions: in vivo, 73 h, dose 30-60 mg/kg
[4] = biological target: T1, Protein cereblon/Stimulator of interferon genes protein (Homo sapiens, UniProt Q96SW2+Q86WV6); test: Protac activity at CRBN/STING in human THP-1 cells assessed as increase in STING degradation incubated for 48 hrs by Western blot analysis; assay type: cell-based
Target sequence in this assay (Q96SW2 whole entry): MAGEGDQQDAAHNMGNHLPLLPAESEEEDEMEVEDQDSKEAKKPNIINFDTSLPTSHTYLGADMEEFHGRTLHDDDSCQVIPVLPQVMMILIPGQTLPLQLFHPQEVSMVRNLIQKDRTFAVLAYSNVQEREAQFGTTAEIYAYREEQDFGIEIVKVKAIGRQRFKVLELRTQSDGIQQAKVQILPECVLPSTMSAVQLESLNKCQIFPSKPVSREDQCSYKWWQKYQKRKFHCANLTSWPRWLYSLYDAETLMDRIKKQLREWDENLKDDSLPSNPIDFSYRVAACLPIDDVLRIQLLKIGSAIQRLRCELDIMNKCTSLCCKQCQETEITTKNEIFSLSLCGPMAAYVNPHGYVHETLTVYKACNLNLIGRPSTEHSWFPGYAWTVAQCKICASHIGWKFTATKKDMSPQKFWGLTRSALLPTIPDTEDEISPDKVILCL
Target sequence in this assay (Q86WV6 whole entry): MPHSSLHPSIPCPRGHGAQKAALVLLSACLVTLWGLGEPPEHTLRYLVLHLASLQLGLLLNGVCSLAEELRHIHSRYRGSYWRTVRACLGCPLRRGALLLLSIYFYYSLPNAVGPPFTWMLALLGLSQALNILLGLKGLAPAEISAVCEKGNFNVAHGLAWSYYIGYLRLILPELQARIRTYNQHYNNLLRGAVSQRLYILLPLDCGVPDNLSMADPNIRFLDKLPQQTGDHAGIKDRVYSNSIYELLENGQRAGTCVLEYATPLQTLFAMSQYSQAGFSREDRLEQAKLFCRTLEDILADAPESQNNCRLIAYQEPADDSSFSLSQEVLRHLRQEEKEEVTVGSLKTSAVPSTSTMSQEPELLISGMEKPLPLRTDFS

[5] = Cmax in Sprague-Dawley rat at 20 mg/kg, po measured upto 48 hrs by UPLC-triple quadrupole MS analysis; assay type: ADME, organism-based; set-up: time < 48 hrs, dose 20 mg/kg, route po; conditions: in vivo
[6] = Toxicity in C57BL/6J mouse assessed as body weight loss at 30 mg/kg, ip measured after 4 days relative to control; assay type: organism-based; conditions: in vivo, 96 h, time 4 day
[7] = biological target: T1, Protein cereblon/Stimulator of interferon genes protein; test: Protac activity at CRBN/STING in human THP-1 cells assessed as increase in STING degradation at 10 uM incubated for 48 hrs by Western blot analysis relative to control; assay type: cell-based
Target sequence in this assay (Q86WV6 whole entry, looked up): as the sequence (Q86WV6 whole entry) above
Target sequence in this assay (Q96SW2 whole entry, looked up): as the sequence (Q96SW2 whole entry) above

[8] = AUC (0 to t) in Sprague-Dawley rat at 20 mg/kg, po measured upto 48 hrs by UPLC-triple quadrupole MS analysis; assay type: ADME, organism-based; set-up: dose 20 mg/kg, time < 48 hrs, route po; conditions: in vivo
[9] = Toxicity in cisplatin-induced acute kidney injury in C57BL/6J mouse model assessed as morphological abnormalities in liver at 30 to 60 mg/kg, ip pretreated for 1 hr followed by cisplatin administration and measured after 72 hrs by H and E staining based analysis; assay type: organism-based; conditions: in vivo, 73 h, dose 30-60 mg/kg
[10] = Cytotoxicity against HEK293-A cells assessed as cell growth inhibition at 30 uM by MTT assay relative to control; assay type: toxicity, cell-based; conditions: human
[11] = Toxicity in cisplatin-induced acute kidney injury in C57BL/6J mouse model assessed as marked inflammatory cell exudation in kidney at 30 to 60 mg/kg, ip pretreated for 1 hr followed by cisplatin administration and measured after 72 hrs by H and E staining based analysis; assay type: organism-based; conditions: in vivo, 73 h, dose 30-60 mg/kg
[12] = tested on: Mus musculus; test: In vivo inhibition of STING signalling pathway in ip dosed cisplatin-induced acute kidney injury in C57BL/6J mouse model assessed as reduction in IFN-beta expression in blood of mouse eyeballs pretreated for 1 hr followed by cisplatin administration and measured after 72 hrs by ELISA; assay type: functional, organism-based; conditions: time 73.0 hrs, DDE = dose-dependent effect
[13] = MRT (0 to infinity) in Sprague-Dawley rat at 2 mg/kg, iv measured upto 48 hrs by UPLC-triple quadrupole MS analysis; assay type: ADME, organism-based; conditions: in vivo
[14] = tested on: Mus musculus; test: Renal protective activity against cisplatin-induced acute kidney injury in C57BL/6J mouse model assessed as improvement in renal blood flow velocity at 60 mg/kg, ip by B-mode ultrasound scanner analysis; assay type: functional, organism-based
[15] = Oral bioavailability in Sprague-Dawley rat at 20 mg/kg measured upto 48 hrs by UPLC-triple quadrupole MS analysis; assay type: ADME, organism-based; conditions: in vivo
[16] = Clearance in Sprague-Dawley rat at 2 mg/kg, iv measured upto 48 hrs by UPLC-triple quadrupole MS analysis; assay type: ADME, organism-based; conditions: in vivo
[17] = Toxicity in C57BL/6J mouse assessed as body weight loss at 60 mg/kg, ip measured after 4 days relative to control; assay type: organism-based; conditions: in vivo, 96 h, time 4 day
[18] = tested on: Mus musculus; test: In vivo inhibition of STING signalling pathway in ip dosed cisplatin-induced acute kidney injury in C57BL/6J mouse model assessed as reduction in IL-6 expression in blood of mouse eyeballs pretreated for 1 hr followed by cisplatin administration and measured after 72 hrs by ELISA; assay type: functional, organism-based; conditions: time 73.0 hrs, DDE = dose-dependent effect
[19] = Renal toxicity in C57BL/6J mouse assessed as reduction in BUN level at 60 mg/kg, ip (Rvb= 8.9 mmol/L); assay type: organism-based; conditions: in vivo
[20] = tested on: Mus musculus; test: Renal protective activity against cisplatin-induced acute kidney injury in C57BL/6J mouse model assessed as reduction in kidney swelling at 60 mg/kg, ip by NMR based analysis; assay type: functional, organism-based
[21] = MRT (0 to t) in Sprague-Dawley rat at 20 mg/kg, po measured upto 48 hrs by UPLC-triple quadrupole MS analysis; assay type: ADME, organism-based; conditions: in vivo
[22] = Cmax in Sprague-Dawley rat at 2 mg/kg, iv measured upto 48 hrs by UPLC-triple quadrupole MS analysis; assay type: ADME, organism-based; set-up: dose 2 mg/kg, time < 48 hrs, route iv; conditions: in vivo
[23] = Toxicity in cisplatin-induced acute kidney injury in C57BL/6J mouse model assessed as illegible tubular structure in kidney at 30 to 60 mg/kg, ip pretreated for 1 hr followed by cisplatin administration and measured after 72 hrs by H and E staining based analysis; assay type: organism-based; conditions: in vivo, 73 h, dose 30-60 mg/kg
[24] = Tmax in Sprague-Dawley rat at 2 mg/kg, iv measured upto 48 hrs by UPLC-triple quadrupole MS analysis; assay type: ADME, organism-based; conditions: in vivo
[25] = In vivo inhibition of STING signalling pathway in cisplatin-induced acute kidney injury in C57BL/6J mouse model assessed as reduction in STING protein expression in kidney at 60 mg/kg, ip pretreated for 1 hr followed by cisplatin administration and measured after 72 hrs by Western blot analysis (Rvb= 375%); assay type: functional; set-up: scale not given: the % may be the effect or the level left; conditions: time 73 hrs
[26] = Toxicity in C57BL/6J mouse model of cisplatin-induced acute kidney injury assessed as survival rate at 30 mg/kg, ip pretreated for 1 hr followed by cisplatin administration and measured after 72 hrs relative to control; assay type: organism-based; conditions: in vivo, 73 h
[27] = tested on: THP-1; test: Inhibition of cGAS-STING signalling pathway in human THP-1 cells assessed as downregulation of cGAMP-triggered IL-6 expression preincubated for 2 hrs followed by cGAMP stimulation and measured after 24 hrs by ELISA; assay type: cell-based; conditions: dose 2.5-20 µM, time 26.0 hrs, DDE = dose-dependent effect
[28] = tested on: Mus musculus; test: Renal protective activity against cisplatin-induced acute kidney injury in C57BL/6J mouse model assessed as reduction in abnormal signal intensities of T2 at 60 mg/kg, ip by NMR based analysis; assay type: functional, organism-based
[29] = biological target: T1, Protein cereblon/Stimulator of interferon genes protein; test: Protac activity at CRBN/STING in human THP-1 cells assessed as increase in STING degradation at 10 uM measured after 4 to 48 hrs by Western blot analysis; assay type: cell-based; conditions: time 4-48 hrs, TDE = time-dependent effect
Target sequence in this assay (Q86WV6 whole entry, looked up): as the sequence (Q86WV6 whole entry) above
Target sequence in this assay (Q96SW2 whole entry, looked up): as the sequence (Q96SW2 whole entry) above

[30] = MRT (0 to t) in Sprague-Dawley rat at 2 mg/kg, iv measured upto 48 hrs by UPLC-triple quadrupole MS analysis; assay type: ADME, organism-based; conditions: in vivo
[31] = tested on: THP-1; test: Inhibition of cGAS-STING signalling pathway in human THP-1 cells assessed as downregulation of cGAMP-triggered CXCL10 expression preincubated for 2 hrs followed by cGAMP stimulation and measured after 24 hrs by ELISA; assay type: cell-based; conditions: dose 2.5-20 µM, time 26.0 hrs, DDE = dose-dependent effect
[32] = Toxicity in cisplatin-induced acute kidney injury in C57BL/6J mouse model assessed as tubular obstruction in kidney at 30 to 60 mg/kg, ip pretreated for 1 hr followed by cisplatin administration and measured after 72 hrs by H and E staining based analysis; assay type: organism-based; conditions: in vivo, 73 h, dose 30-60 mg/kg

With `O=C(/C=C/C(=O)Nc1ccc(NC(=O)c2ccc([N+](=O)[O-])o2)cc1)NCCCCCCNc1cccc2c1C(=O)N(C1CCC(=O)NC1=O)C2=O` (configuration not stated) the MRT inf [1] was 11.7 h, the Vd [2] was 38 L/kg and the Activity [3] was “Non-Toxic”. The DC50 [4] was 3.2 µM, the Cmax [5] was 8.37 ng/mL and the Activity [6] was 13%. The Activity [7] was 76%, the AUC(0-t) at 48 h [8] was 52.2 ng·h/mL and the Activity [9] was “Non-Toxic”. For the same compound, the inhibition at 30 µM [10] was 11%, the Activity [11] was “Non-Toxic” and the inhibition [12] was “Dde”. The MRT inf [13] was 1.95 h, the Activity [14] was “Active” and the bioavailability [15] was 2.15%. The clearance [16] was 113 mL/min/kg, the Activity [17] was 9% and the inhibition [18] was “Dde”. The Activity [19] was 16.3 mmol/L, the Activity [20] was “Active” and the MRT last at 48 h [21] was 7.6 h. For the same compound, the Cmax [22] was 318 ng/mL, the Activity [23] was “Non-Toxic” and the Tmax [24] was 4.98 min. For the same compound, the Activity [25] was 70%, the Survival [26] was 89% and the Activity [27] was “Dde”. For the same compound, the Activity [28] was “Active”, the Activity [29] was “Tde” and the MRT last at 48 h [30] was 1.74 h. The Activity [31] was “Dde” and the Activity [32] was “Non-Toxic”.
